For data set [1] the following is noted: rat, in vivo.
Description: (§1) As summarized in Table 6, groups of rats were treated with vehicle, Pro-Gly-CNP-37, or Gly-CNP-37. The dose route was intraarticular (IA) or subcutaneous (SC). The dose scheduling was either intraarticular administration three times per week (M, W, F) for 3 weeks (TIW×3W) or subcutaneous administration once daily for approximately 3 weeks (QD×3W). […] IA injections were given as a fixed dose whereas SC injections were given at a given dose per weight based on the most recently recorded body weight. For all rats, body weights were measured predose. For a 300-gram rat, the weekly IA dose regimen for the low, middle, and high levels was approximately equivalent to 15, 50, and 150 μg/kg/day, respectively.
(§2) The pharmacokinetic (PK) and pharmacodynamic (PD) properties of the CNP variants were evaluated. For the PK/PD analysis, timed blood collections were performed on 3 rats/group/time point as follows: 15, 30, 60, and 120 minutes post dosing for the IA groups and 5, 15, 30, 60, and 120 minutes post dosing for the SC groups. After blood collection, synovial lavage fluid (SLF, ˜50 μL/knee) was collected from each rat's left (normal) and right (operated) knee.
(§3) Individual plasma samples were analyzed for Pro-Gly-SNP-37 levels and mean concentration vs. time profiles were analyzed using a non-compartmental model for extravascular administration in Phoenix WinNonlin software.
The nature of data set [2]: in vivo. The settings on record: rat.
Description: as §1, §2, §3
Data set [3] is described as follows: Body weight gain, late stage rat osteoarthritis study (Example 3). The class given is in vivo. From the text:
A model of late stage osteoarthritis was used to evaluate the efficacy of Pro-Gly-CNP-37 in pre-developed osteoarthritis (i.e., primary osteoarthritis). As described above in Examples 1 and 2, osteoarthritis was induced in the rear legs of rats by severing the meniscus. However, in contrast to Examples 1 and 2, the lesion pathology was allowed to progress for three weeks before IA or SC treatment with Pro-Gly-CNP-37 thereby simulating pre-existing OA (i.e., primary osteoarthritis). The overall study design is outlined in Table 9. In particular, male Lewis rats underwent a unilateral medial meniscal tear surgery on Study Day 0; administration of control vehicle or Pro-Gly-CNP-37 began on Study Day 21; and animals were euthanized at scheduled time points following the last dose on Study Day 22 (Groups 1-4) or Study Day 40 (Groups 5-11). The primary endpoints evaluated included histopathological examination of chondrocyte death/cartilage degeneration in the knee.

The target in data set [4] is T1, NPR-B (Homo sapiens, UniProt P20594).
T1 sequence (P20594 23-1047): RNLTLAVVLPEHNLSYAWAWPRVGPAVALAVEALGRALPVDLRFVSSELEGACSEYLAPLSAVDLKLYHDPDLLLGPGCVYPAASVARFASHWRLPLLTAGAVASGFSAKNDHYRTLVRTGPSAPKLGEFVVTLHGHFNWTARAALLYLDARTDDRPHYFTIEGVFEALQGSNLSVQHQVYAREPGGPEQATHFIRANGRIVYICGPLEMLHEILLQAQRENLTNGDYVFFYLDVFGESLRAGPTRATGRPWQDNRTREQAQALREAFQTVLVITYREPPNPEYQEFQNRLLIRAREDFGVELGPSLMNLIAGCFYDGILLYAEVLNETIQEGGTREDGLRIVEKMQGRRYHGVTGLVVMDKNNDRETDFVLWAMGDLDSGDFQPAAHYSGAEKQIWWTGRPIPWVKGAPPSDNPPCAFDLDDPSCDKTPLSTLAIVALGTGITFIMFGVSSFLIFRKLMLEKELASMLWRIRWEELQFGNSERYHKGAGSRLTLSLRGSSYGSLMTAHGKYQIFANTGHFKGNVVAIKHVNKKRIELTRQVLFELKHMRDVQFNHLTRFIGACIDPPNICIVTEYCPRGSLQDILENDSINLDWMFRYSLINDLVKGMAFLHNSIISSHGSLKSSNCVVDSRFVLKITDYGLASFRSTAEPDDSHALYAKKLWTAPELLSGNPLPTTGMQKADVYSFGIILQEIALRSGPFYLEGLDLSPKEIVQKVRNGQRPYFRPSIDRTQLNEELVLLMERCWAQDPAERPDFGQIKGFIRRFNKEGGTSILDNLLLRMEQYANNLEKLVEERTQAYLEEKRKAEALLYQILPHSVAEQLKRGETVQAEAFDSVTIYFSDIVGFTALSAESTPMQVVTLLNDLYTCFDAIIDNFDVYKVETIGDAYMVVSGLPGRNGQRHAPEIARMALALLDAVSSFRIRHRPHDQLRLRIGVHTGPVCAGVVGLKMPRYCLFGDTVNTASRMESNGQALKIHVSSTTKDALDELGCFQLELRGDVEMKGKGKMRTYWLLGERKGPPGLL
Kind of data set: NPR-B signaling studies. The class given is biochemical. An excerpt: Natural substrates of NEP are small and natriuretic peptides (about 2.2 to about 3.2 kDa) are the largest of the natural substrates. According to X-ray crystallographic analyses, the NEP active-site is buried deep inside a central cavity, effectively restricting the size of substrate molecules to no more than about 3 kDa (Oefner et al., J. Mol. Biol., 296: 341-349 (2000)).
The present disclosure encompasses CNP variants designed for improved NPR-B selectivity based on a homology-based structural model of the NPR-B/CNP complex. Combining the experimental and computational structure data of natriuretic peptides bound to the various receptors with the published functional data, CNP variants were generated that continue to bind to NPR-B, but can potentially have reduced affinity to the NPR-C clearance receptor. […] Accordingly, CNP variants were generated to replace the corresponding Gly8 residue with a larger residue (Ser, Val, Thr, or Asn) to disrupt the CNP binding to NPR-C without affecting its binding to NPR-B. Further, one or more mutations were introduced at the C-terminal end of CNP, encompassing Gly15 to Gly21, which is predicted to interact with receptor-specific residues, based on the detailed structural analyses of the receptor/peptide complexes. […]

For orientation: AUC(0-t) means exposure summed from dosing to a finite time, without extrapolation to infinity. Usually Cmax stands for the maximum level reached in the sampled fluid or tissue. A word on the Tmax: it is the time from dosing to the highest level. For orientation: clearance means a measure of how efficiently the substance is removed, as volume per time. A higher clearance goes with a high capacity for elimination. As a reminder, the half-life is the time needed for the level to fall by half in the phase considered. The low end stands for rapid decline, the high end for slow decline.

Bridges are numbered along the chain shown (N, C = ends). Where no end group is shown, it is not given here.

As to `CC[C@H](C)[C@@H]1NC(=O)[C@H](CCCNC(=N)N)NC(=O)[C@H](CC(=O)O)NC(=O)[C@H](CC(C)C)NC(=O)[C@H](CCCCN)NC(=O)[C@H](CC(C)C)NC(=O)CNC(=O)[C@H](Cc2ccccc2)NC(=O)[C@@H](NC(=O)CNC(=O)[C@H](CCCCN)NC(=O)[C@H](CO)NC(=O)[C@H](CC(C)C)NC(=O)CNC(=O)[C@H](CCCCN)NC(=O)[C@H](CCCCN)NC(=O)[C@H](CC(N)=O)NC(=O)[C@H](C)NC(=O)CNC(=O)[C@H](CCCCN)NC(=O)[C@H](Cc2ccc(O)cc2)NC(=O)[C@H](CCCCN)NC(=O)[C@H](CCCNC(=N)N)NC(=O)[C@H](C)NC(=O)[C@H](CC(N)=O)NC(=O)[C@@H]2CCCN2C(=O)[C@H](Cc2c[nH]cn2)NC(=O)[C@H](CCC(=O)O)NC(=O)[C@H](CCC(N)=O)NC(=O)CNC(=O)[C@@H]2CCCN2)CSSC[C@@H](C(=O)O)NC(=O)CNC(=O)[C@H](CC(C)C)NC(=O)CNC(=O)[C@H](CO)NC(=O)[C@H](CCSC)NC(=O)[C@H](CO)NC(=O)CNC1=O` [Pro-Gly-CNP-37], in data set [1], the exposure vs dose result is “generally dose-proportional”. Moreover, the “appearance in systemic circulation” value in data set [1] (sc) was “appeared rapidly in systemic circulation”. For the same molecule, the CL in data set [1] (sc, 150 ug/kg) stood at 121 mL/min. Also, the AUC(0-t) in data set [2] (10.5 ug) was 28.6 ng·h/mL; in data set [2] (35.5 ug), 99 ng·h/mL; in data set [2] (105 ug), 147 ng·h/mL; in data set [2] (sc, 150 ug/kg), 16.3 ng·h/mL. Further, the Cmax in data set [2] (10.5 ug) turned out to be 33.8 ng/mL; in data set [2] (35.5 ug), 110 ng/mL; in data set [2] (105 ug), 357 ng/mL; in data set [2] (sc, 150 ug/kg), 28.4 ng/mL. Also, the Tmax in data set [2] (10.5 ug) was 15 min; in data set [2] (35.5 ug), 15 min; in data set [2] (105 ug), 15 min; in data set [2] (sc, 150 ug/kg), 15 min. Besides, the clearance came out at 5.77 mL/min in data set [2] (10.5 ug), 5.36 mL/min in data set [2] (35.5 ug) and 9.19 mL/min in data set [2] (105 ug). Also, the half-life in data set [2] (10.5 ug) was 27 min; in data set [2] (35.5 ug) it was 34.9 min; in data set [2] (105 ug) it was 38.1 min; in data set [2] (sc, 150 ug/kg), 23.8 min. Moreover, the body weight gain entry in data set [3] (105 μg IA vs IA vehicle) and in data set [3] (150 μg/kg SC vs SC vehicle) was “significantly reduced” in each case. The “body weight change (FIG. 27)” value in data set [3] (treated animals, IA and SC) is reported as “reduced body weight change”.

Regarding “CFGLKLDRIGSMSGLGC (disulfide 1-17 (inferred)) [CNP-17]”, the “binding and activation of NPR-B compared with wtCNP-22” value in data set [4] is “can still bind and activate NPR-B similarly”.

On to “DLRVDTKSRAAWARLLQEHPNARKYKGANKKGLSKGCFGLKLDRIGSMSGLGC (ends and bridges not checked; cysteine pairing not given here) [CNP-53]”, for which, in data set [4], the “binding and activation of NPR-B compared with wtCNP-22” value is “can still bind and activate NPR-B similarly”.
